Source: EP4332093A1, “SALT CONTAINING PIPERAZINE POLYCYCLIC DERIVATIVE, CRYSTAL FORM THEREOF, PREPARATION METHOD THEREFOR, AND USE THEREOF” (Shanghai Hansoh Biomedical Co., Ltd., priority 2021, dated 2022)
Read-outs that look alike come from different tables or passages of the source.

What was measured:
D3 receptor = molecular target: T1, D3 receptor (Homo sapiens, UniProt P35462); experiment: cAMP content in cells stably expressing D3 receptors (CHO-D3, forskolin, HTRF); format: cell-based
T1 construct: expressed in transfected cells

[1] = Pharmacokinetic assay in Balb/c mice (plasma and brain tissue); format: in vivo; conditions: male, mouse, po, p.o. 5 mg/kg; for AUC(0-t): read-out: Area under curve AUC0-t; for AUC(0-inf): read-out: Area under curve AUC0-∞; for Tmax: read-out: Peak time tmax; for Cmax: read-out: Plasma concentration Cmax; for MRT: read-out: Average residence time MRT; for half-life: read-out: Half life t1/2 (converted)
How it was run: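 Fasted male Balb/c mice (12 per group) received 5 mg/kg p.o. in 0.5% CMC-Na/1% Tween80. Plasma and whole brain were collected […]. Compound was quantified by LC/MS/MS after acetonitrile precipitation, with PK parameters from noncompartmental analysis.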

5-HT2A receptor = 5-HT2A receptor (Homo sapiens, UniProt P28223); experiment: Calcium ion mobility in cells stably expressing 5-HT2A receptors (Flp-In-CHO-5HT2A, FLIPR); format: cell-based; parameters: expressed in transfected cells; conditions: Flp-In-CHO-5HT2A stable pool, 5HT stimulation
5-HT2A receptor, sequence (P28223 whole entry): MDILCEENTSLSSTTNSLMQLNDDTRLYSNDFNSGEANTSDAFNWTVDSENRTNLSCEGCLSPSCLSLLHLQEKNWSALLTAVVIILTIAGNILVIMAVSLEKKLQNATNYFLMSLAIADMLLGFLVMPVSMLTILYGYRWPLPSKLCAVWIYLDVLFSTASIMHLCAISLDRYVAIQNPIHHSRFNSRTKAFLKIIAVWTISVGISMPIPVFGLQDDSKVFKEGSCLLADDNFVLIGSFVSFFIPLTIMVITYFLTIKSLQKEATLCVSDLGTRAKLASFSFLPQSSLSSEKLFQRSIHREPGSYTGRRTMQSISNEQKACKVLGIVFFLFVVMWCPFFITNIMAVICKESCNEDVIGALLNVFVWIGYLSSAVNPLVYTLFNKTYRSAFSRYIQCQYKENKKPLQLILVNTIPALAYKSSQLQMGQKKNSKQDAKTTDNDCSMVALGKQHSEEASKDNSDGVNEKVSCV

T1 sequence (P35462 whole entry): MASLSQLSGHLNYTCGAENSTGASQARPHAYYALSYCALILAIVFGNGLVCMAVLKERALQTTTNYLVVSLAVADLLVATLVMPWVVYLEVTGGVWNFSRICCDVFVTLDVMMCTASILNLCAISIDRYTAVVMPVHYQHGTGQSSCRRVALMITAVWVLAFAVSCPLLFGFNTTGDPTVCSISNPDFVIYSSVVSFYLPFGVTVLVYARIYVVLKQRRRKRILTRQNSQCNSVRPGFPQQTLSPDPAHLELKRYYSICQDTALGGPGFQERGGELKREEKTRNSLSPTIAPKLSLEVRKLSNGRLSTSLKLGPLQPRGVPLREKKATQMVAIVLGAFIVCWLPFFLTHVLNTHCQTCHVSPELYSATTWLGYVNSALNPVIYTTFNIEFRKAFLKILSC

SMILES	EC50 (D3 receptor)	AUC(0-t) ([1]; Brain)	AUC(0-inf) ([1]; Brain)	Tmax ([1]; Brain)	Cmax ([1]; Brain)	AUC(0-t) ([1]; Plasma)	AUC(0-inf) ([1]; Plasma)	MRT ([1]; Plasma)	half-life ([1]; Plasma)	Tmax ([1]; Plasma)	Cmax ([1]; Plasma)	IC50 (5-HT2A receptor)
O=C(NC1CC(CCN2CCN(c3cccc(Cl)c3Cl)CC2)C1)c1ncco1 (stereo not shown) [Example 12, N-(3-(2-(4-(2,3-Dichlorophenyl)piperazin-1-yl)ethyl)cyclobutyl)oxazole-2-carboxamide]	1.7 nM	4830 ng·h/mL	4880 ng·h/mL	1 h	1200 ng/mL	1040 ng·h/mL	1230 ng·h/mL	3.9 h	2.8 h	0.5 h	391 ng/mL	5.2 nM
O=C(N[C@H]1C[C@H](CCN2CCN(c3cccc(Cl)c3Cl)CC2)C1)c1ncco1 [Example 12A, N-(Trans-3-(2-(4-(2,3-dichlorophenyl)piperazin-1-yl)ethyl)cyclobutyl)oxazole-2-car boxamide]	0.6 nM	8130 ng·h/mL		1 h	1760 ng/mL	1840 ng·h/mL	1970 ng·h/mL	3.1 h	1.9 h	0.5 h	673 ng/mL	2.21 nM
O=C(N[C@H]1C[C@H](CCN2CCN(c3cccc(Cl)c3Cl)CC2)C1)c1cccc2ncccc12 [Example 19A, N-(Trans-3-(2-(4-(2,3-dichlorophenyl)piperazin-1-yl)ethyl)cyclobutyl)quinoline-5-c arboxamide]	1.6 nM	1240 ng·h/mL		1 h	372 ng/mL	456 ng·h/mL	471 ng·h/mL	1.8 h	1.7 h	0.5 h	349 ng/mL	7.67 nM

Now from value to compound:

EC50 (D3 receptor)	AUC(0-t) ([1]; Brain)	AUC(0-inf) ([1]; Brain)	Tmax ([1]; Brain)	Cmax ([1]; Brain)	AUC(0-t) ([1]; Plasma)	AUC(0-inf) ([1]; Plasma)	MRT ([1]; Plasma)	half-life ([1]; Plasma)	Tmax ([1]; Plasma)	Cmax ([1]; Plasma)	IC50 (5-HT2A receptor)	SMILES
0.6 nM	1080 ng·h/mL		1 h	321 ng/mL	1420 ng·h/mL	1440 ng·h/mL	1.8 h	1.3 h	0.5 h	745 ng/mL	3.07 nM	O=C(N[C@H]1C[C@H](CCN2CCN(c3cccc(Cl)c3Cl)CC2)C1)C1(O)CC1 [Example 6A, N-(Trans-3-(2-(4-(2,3-dichlorophenyl)piperazin-1-yl)ethyl)cyclobutyl)-1-hydroxycy clopropane-1-carboxamide]
1 nM	1350 ng·h/mL		1 h	179 ng/mL	395 ng·h/mL	501 ng·h/mL	5.3 h	3.7 h	1 h	102 ng/mL	2.74 nM	O=C(N[C@H]1C[C@H](CCN2CCN(c3cccc(Cl)c3Cl)CC2)C1)c1nccs1 [Example 7A, N-(Trans-3-(2-(4-(2,3-dichlorophenyl)piperazin-1-yl)ethyl)cyclobutyl)thiazole-2-car boxamide]
0.7 nM	5200 ng·h/mL		1 h	1870 ng/mL	1620 ng·h/mL	1710 ng·h/mL	2.4 h	1.8 h	0.5 h	715 ng/mL	11.6 nM	O=C(N[C@H]1C[C@@H](CCN2CCN(c3cccc(Cl)c3Cl)CC2)C1)c1ncco1 [Example 12B, N-(Cis-3-(2-(4-(2,3-dichlorophenyl)piperazin-1-yl)ethyl)cyclobutyl)oxazole-2-carbo xamide]
